Assay results as given in PubChem BioAssay (NCI).
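Briefly, cells in 96-well plates were exposed to five compound concentrations for 48 h, and endpoints were estimated by linear interpolation. GI50 is the concentration that inhibits growth by half. TGI: total growth inhibition.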 Where a SMILES comes first, the peptide text is derived from it. [ ]: non-standard residue; d: D form. ξ: configuration not given here. ξLac(3-iPr) = CC(C)CC(O)C(=O)O; NMeV = CN[CH](C(=O)O)C(C)C; NMeA = CN[CH](C)C(=O)O; βAla = NCCC(=O)O

What was measured:
Test in all cases: inhibition of tumour cell growth, NCI panel, 48 h
COLO 205 colon = tested on: COLO 205 colon
EKVX NSCLC = tested on: EKVX NSCLC
HCT-116 colon = tested on: HCT-116 colon
HCT-15 colon = tested on: HCT-15 colon
KM12 colon = tested on: KM12 colon
M14 melanoma = tested on: M14 melanoma
MALME-3M melanoma = tested on: MALME-3M melanoma
NCI-H226 lung = tested on: NCI-H226 lung
OVCAR-5 ovarian = tested on: OVCAR-5 ovarian
RPMI-8226 leukemia = tested on: RPMI-8226 leukemia
SK-MEL-5 melanoma = tested on: SK-MEL-5 melanoma
SW-620 colon = tested on: SW-620 colon

O=C(c1ccccc1)C1C(c2ccccc2)N1S(=O)(=O)c1ccccc1 (stereo unspecified)
TGI (COLO 205 colon): > 100 µM | TGI (EKVX NSCLC): > 100 µM | TGI (HCT-116 colon): > 100 µM | TGI (HCT-15 colon): > 100 µM | TGI (KM12 colon): > 100 µM | TGI (M14 melanoma): > 100 µM | TGI (MALME-3M melanoma): > 100 µM | TGI (NCI-H226 lung): > 100 µM | TGI (OVCAR-5 ovarian): > 100 µM | TGI (RPMI-8226 leukemia): > 100 µM | TGI (SK-MEL-5 melanoma): > 100 µM | TGI (SW-620 colon): > 100 µM

Cc1ccc2c(ccc(/C=C\c3cc(C)c4cccnc4c3O)[n+]2C)c1
TGI (COLO 205 colon): 71.9 µM | TGI (EKVX NSCLC): 75 µM | TGI (HCT-116 colon): 19.6 µM | TGI (KM12 colon): 31.6 µM | TGI (M14 melanoma): 25.5 µM | TGI (MALME-3M melanoma): 25.1 µM | TGI (NCI-H226 lung): 3.98 µM | TGI (OVCAR-5 ovarian): > 100 µM | TGI (RPMI-8226 leukemia): 21.6 µM | TGI (SK-MEL-5 melanoma): 2.98 µM | TGI (SW-620 colon): 30.1 µM

COc1cc(C(=O)CC2OC(=O)C(Cl)=C2Cl)ccc1Cl (stereo unspecified)
TGI (COLO 205 colon): > 100 µM | TGI (EKVX NSCLC): > 100 µM | TGI (HCT-116 colon): > 100 µM | TGI (HCT-15 colon): > 100 µM | TGI (KM12 colon): > 100 µM | TGI (M14 melanoma): > 100 µM | TGI (MALME-3M melanoma): > 100 µM | TGI (NCI-H226 lung): > 100 µM | TGI (OVCAR-5 ovarian): > 100 µM | TGI (RPMI-8226 leukemia): > 100 µM | TGI (SK-MEL-5 melanoma): > 100 µM | TGI (SW-620 colon): > 100 µM

C[N+](C)(C)c1cc2c(nn1)Nc1ccccc1S2
TGI (COLO 205 colon): 38 µM | TGI (EKVX NSCLC): 29.9 µM | TGI (HCT-116 colon): 66 µM | TGI (HCT-15 colon): > 100 µM | TGI (KM12 colon): > 100 µM | TGI (M14 melanoma): 40 µM | TGI (MALME-3M melanoma): 70 µM | TGI (NCI-H226 lung): 35.9 µM | TGI (OVCAR-5 ovarian): 58.2 µM | TGI (RPMI-8226 leukemia): 36 µM | TGI (SK-MEL-5 melanoma): 29.9 µM | TGI (SW-620 colon): > 100 µM

C[C@]12CC[C@@H]3c4ccc(O)cc4CC[C@H]3[C@@H]1CC[C@@H]2OC(=O)CCc1ccccc1
TGI (COLO 205 colon): 37.1 µM | TGI (EKVX NSCLC): 25.4 µM | TGI (HCT-116 colon): 48.4 µM | TGI (HCT-15 colon): 33 µM | TGI (KM12 colon): 78.7 µM | TGI (M14 melanoma): 37.8 µM | TGI (MALME-3M melanoma): 34.8 µM | TGI (NCI-H226 lung): 36.8 µM | TGI (OVCAR-5 ovarian): > 100 µM | TGI (RPMI-8226 leukemia): 35.6 µM | TGI (SK-MEL-5 melanoma): 33.7 µM | TGI (SW-620 colon): 64.7 µM

CC1(C)N=C(N)N=C(N)N1c1cccc(C(=O)Nc2ccc(S(=O)(=O)F)cc2)c1
TGI (COLO 205 colon): > 100 µM | TGI (EKVX NSCLC): > 100 µM | TGI (HCT-116 colon): > 100 µM | TGI (HCT-15 colon): > 100 µM | TGI (KM12 colon): > 100 µM | TGI (M14 melanoma): > 100 µM | TGI (MALME-3M melanoma): > 100 µM | TGI (NCI-H226 lung): > 100 µM | TGI (OVCAR-5 ovarian): > 100 µM | TGI (RPMI-8226 leukemia): > 100 µM | TGI (SK-MEL-5 melanoma): > 100 µM | TGI (SW-620 colon): > 100 µM

Cc1nc2[nH]ncn2c(=O)c1CCCl
TGI (COLO 205 colon): > 10 µM | TGI (EKVX NSCLC): > 10 µM | TGI (HCT-116 colon): > 10 µM | TGI (HCT-15 colon): > 10 µM | TGI (M14 melanoma): > 10 µM | TGI (MALME-3M melanoma): > 10 µM | TGI (NCI-H226 lung): > 10 µM | TGI (OVCAR-5 ovarian): > 10 µM | TGI (RPMI-8226 leukemia): > 10 µM | TGI (SK-MEL-5 melanoma): > 10 µM | TGI (SW-620 colon): > 10 µM

CCC(C)C1NC(=O)C2CCCN2C(=O)C(CC(C)C)OC(=O)CCNC(=O)C(C)N(C)C(=O)C(C(C)C)N(C)C1=O (stereo unspecified) (cyclo([ξLac(3-iPr)]PI[NMeV][NMeA][βAla]); configuration not given here)
TGI (COLO 205 colon): 17.2 µM | TGI (EKVX NSCLC): > 100 µM | TGI (HCT-116 colon): 19.6 µM | TGI (HCT-15 colon): > 100 µM | TGI (KM12 colon): 45.5 µM | TGI (M14 melanoma): 6.49 µM | TGI (MALME-3M melanoma): 45.2 µM | TGI (NCI-H226 lung): > 45.9 µM | TGI (OVCAR-5 ovarian): > 100 µM | TGI (RPMI-8226 leukemia): 8.15 µM | TGI (SK-MEL-5 melanoma): 3.27 µM | TGI (SW-620 colon): > 100 µM

O=C1C=CC(=O)c2c(O)c(Br)c(Br)c(O)c21
TGI (COLO 205 colon): 2.46 µM | TGI (EKVX NSCLC): 58.7 µM | TGI (HCT-116 colon): 8.57 µM | TGI (HCT-15 colon): 4.83 µM | TGI (KM12 colon): 16.7 µM | TGI (M14 melanoma): 3.79 µM | TGI (MALME-3M melanoma): 2.54 µM | TGI (NCI-H226 lung): 55.6 µM | TGI (OVCAR-5 ovarian): 30.8 µM | TGI (RPMI-8226 leukemia): 3.42 µM | TGI (SK-MEL-5 melanoma): 27.2 µM | TGI (SW-620 colon): 3.44 µM

N#C/C(=C\c1ccc(Br)cc1)n1nnc2cc(Cl)c(Cl)cc21
GI50 (EKVX NSCLC): 2.83 µM | TGI (EKVX NSCLC): > 100 µM | GI50 (HCT-116 colon): 1.43 µM | TGI (HCT-116 colon): 3.08 µM | GI50 (HCT-15 colon): 1.67 µM | TGI (HCT-15 colon): 5.17 µM | GI50 (KM12 colon): 2.92 µM | TGI (KM12 colon): > 100 µM | GI50 (M14 melanoma): 1.92 µM | TGI (M14 melanoma): 5.03 µM | GI50 (NCI-H226 lung): 3.59 µM | TGI (NCI-H226 lung): > 100 µM | GI50 (RPMI-8226 leukemia): 1.42 µM | TGI (RPMI-8226 leukemia): 4.38 µM

Clc1ccc(C[P+]2(c3ccccc3)CCCCC2)cc1
TGI (COLO 205 colon): > 100 µM | TGI (EKVX NSCLC): > 100 µM | TGI (HCT-116 colon): > 100 µM | TGI (HCT-15 colon): > 100 µM | TGI (KM12 colon): > 100 µM | TGI (M14 melanoma): > 100 µM | TGI (MALME-3M melanoma): > 100 µM | TGI (NCI-H226 lung): > 100 µM | TGI (OVCAR-5 ovarian): > 100 µM | TGI (RPMI-8226 leukemia): > 100 µM | TGI (SK-MEL-5 melanoma): 43.3 µM | TGI (SW-620 colon): > 100 µM

O=C1c2ccccc2C(=O)c2c(Nc3cc4c5c(ccc6c7ccc8c9c(cc(Nc%10cccc%11c%10C(=O)c%10ccccc%10C%11=O)c(c3c56)c97)-c3ccccc3C8=O)C(=O)c3ccccc3-4)cccc21
TGI (COLO 205 colon): > 100 µM | TGI (EKVX NSCLC): > 100 µM | TGI (HCT-116 colon): > 100 µM | TGI (HCT-15 colon): > 100 µM | TGI (KM12 colon): > 100 µM | TGI (M14 melanoma): > 100 µM | TGI (MALME-3M melanoma): > 100 µM | TGI (NCI-H226 lung): > 100 µM | TGI (OVCAR-5 ovarian): > 100 µM | TGI (RPMI-8226 leukemia): > 100 µM | TGI (SK-MEL-5 melanoma): > 100 µM | TGI (SW-620 colon): > 100 µM

CCN(CC)c1ccc2nc3ccc(N=Nc4c(O)ccc5ccccc45)cc3[n+](-c3ccccc3)c2c1
TGI (COLO 205 colon): > 100 µM | TGI (EKVX NSCLC): > 100 µM | TGI (HCT-116 colon): > 100 µM | TGI (HCT-15 colon): > 100 µM | TGI (KM12 colon): > 100 µM | TGI (M14 melanoma): > 100 µM | TGI (MALME-3M melanoma): > 100 µM | TGI (NCI-H226 lung): > 100 µM | TGI (OVCAR-5 ovarian): > 100 µM | TGI (RPMI-8226 leukemia): > 100 µM | TGI (SK-MEL-5 melanoma): > 100 µM | TGI (SW-620 colon): > 100 µM
